Reference: patent US20220242850A1, “PHTHALAZIN-1-ONE DERIVATIVES USEFUL AS GRK2 INHIBITORS” (Janssen Pharmaceutica NV, priority 2019, published 2022)
pIC50: −log10 of the molar value. “And” between values parts separate entries of the source, which are not always exact repeats. Equal entries are not always repeated.

The compounds below were run against T1, GRK2 (Homo sapiens, UniProt P25098) (assay: hGRK2 LANCE Ultra In Vitro Assay). Conditions: hGRK2 LANCE Ultra Assay IC50, 10 nM GRK2; ATP 30 or 600 μM (not stated which).
T1 sequence (P25098 1-689): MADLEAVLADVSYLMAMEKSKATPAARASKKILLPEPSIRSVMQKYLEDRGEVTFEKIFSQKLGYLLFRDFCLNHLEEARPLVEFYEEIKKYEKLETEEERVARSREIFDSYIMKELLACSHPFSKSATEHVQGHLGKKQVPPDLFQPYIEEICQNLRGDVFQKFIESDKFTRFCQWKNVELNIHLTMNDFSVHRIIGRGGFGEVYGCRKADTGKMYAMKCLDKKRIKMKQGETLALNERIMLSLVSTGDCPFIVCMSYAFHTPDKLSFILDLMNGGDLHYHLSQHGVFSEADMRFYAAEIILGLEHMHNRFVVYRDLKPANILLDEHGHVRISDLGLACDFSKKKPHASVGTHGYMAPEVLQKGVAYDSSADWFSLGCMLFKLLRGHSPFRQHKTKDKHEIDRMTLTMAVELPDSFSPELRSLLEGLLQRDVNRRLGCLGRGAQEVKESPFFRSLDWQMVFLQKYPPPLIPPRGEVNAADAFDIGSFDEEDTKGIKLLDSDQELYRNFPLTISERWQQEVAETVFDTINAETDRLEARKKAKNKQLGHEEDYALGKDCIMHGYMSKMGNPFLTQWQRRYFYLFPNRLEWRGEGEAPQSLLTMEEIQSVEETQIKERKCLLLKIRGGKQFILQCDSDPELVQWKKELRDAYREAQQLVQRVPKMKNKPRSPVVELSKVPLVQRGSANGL
Type: biochemical
Experimental: G-protein coupled receptor kinases (GR Kinases) desensitize activated G-protein coupled receptors (GPCRs), by phosphorylation of cytoplasmic loops or carboxyl-terminal tails of GPCRs. GRK2 is one of the 6 different GR kinases and is implicated in heart failure and diabetes.
This assay is sensitive and requires as low as 10 nM enzyme, in a total volume of 10 μL. In addition, the ATP concentration can be varied over a broad range, without interfering with the assay or changing the assay condition. […] Testing inhibitors routinely at both high and low ATP concentrations also enables identification of potential non-ATP competitive inhibitors.
Paroxetine was used as the reference compound in this assay.
Test compounds were dissolved in DMSO at 1 mM and were 3-fold serial diluted. The compound DMSO solutions were then added (100 nL) into a plate well using an acoustic dispenser. To each well was then added 20 nM GRK2 (5 μL) in assay buffer (20 mM HEPES, pH 7.5, 10 mM MgCl2, 0.001% Tween-20®). The plate was sealed and centrifuged at 1000 rpm for 1 min. The plate and wells containing a mixture of GRK2 and test compound were incubated at ambient temperature for 30 min (prior to initializing the enzymatic reaction).
Enzyme reactions were initiated by the addition of 4.9 μL Substrates/Eu-Ab mix to each well. […] Final concentrations of reagents in the assays were as follows: 20 mM HEPES, pH 7.5; 10 mM MgCl2; 0.001% Tween-2® (w/v), 30 or 600 μM ATP; 200 nM ULight-peptide; 4 nM Eu-Ab; 10 nM GRK2; and 1% DMSO.
The plates were sealed and centrifuged at 1000 rpm for 1 min. For reactions at low ATP concentration (30 μM), reaction mixtures were incubated at ambient temperature for 120 min. For reactions at high ATP concentration (600 μM), reaction mixtures were incubated at ambient temperature for 60 min.
The enzyme reactions were quenched by addition of 10 μL of 12 mM EDTA in 1× LANCE detection solution to each well. The plates were then incubated at ambient temperature for 30 min.
The raw HTRF data were converted to % active as follows:
% active=(sample−NC)/(PC−NC)*100
where NC is the mean of negative control (reactions without GRK2), and PC is the mean of positive control (reactions with GRK2 but without inhibitor). IC50 values were determined from a 4-parameter fit, using the following equation:
(§1) Y=Bottom+(Top−Bottom)/(1+10^(Log IC50-X)*Hill slope)),
(§2) where X=log10 of the compound concentration.

| SMILES | pIC50 |
| --- | --- |
| COc1cccc(C(C)n2ncc3ccc(-c4cn[nH]c4)cc3c2=O)c1 (single isomer, unassigned) [Compound 16, 2-[1-(3-Methoxyphenyl)ethyl]-7-(1H-pyrazol4-yl)phthalazin-1-one] | 7.05 |
| COc1cccc(C(C)n2ncc3ccc(-c4cn[nH]c4)cc3c2=O)c1 (single isomer, unassigned) [Compound 17, 2-[1-(3-Methoxyphenyl)ethyl]-7-(1H-pyrazol-4-yl)phthalazin-1-one] | 5.77 |
| COc1cccc(Cl)c1CNC(=O)c1cccc(Cn2ncc3ccc(-c4cn[nH]c4)cc3c2=O)c1 [Compound 1, N-[(2-Chloro-6-methoxy-phenyl)methyl]-3-[[1-oxo-7-(1H-pyrazol-4-yl)phthalazin-2-yl]methyl]benzamide] | > 8.30 |
| Cc1cccc(Cl)c1CNC(=O)c1cccc(Cn2ncc3ccc(-c4cn[nH]c4)cc3c2=O)c1 [Compound 2, N-[(2-Chloro-6-methyl-phenyl)methyl]-3-[[1-oxo-7-(1H-pyrazol4-yl)phthaiazin-2-yl]methyl]benzamide] | > 8.30 |
| O=C(NC1CC2CCC1C2)c1cccc(Cn2ncc3ccc(-c4cn[nH]c4)cc3c2=O)c1 (stereo not drawn) [Compound 3, N-Norbornan-2-yl-3-[[1-oxo-7-(1H-pyrazol-4-yl)phthalazin-2-yl]methyl]benzamide] | 8.30 |
| C#CCCNC(=O)c1cccc(Cn2ncc3ccc(-c4cn[nH]c4)cc3c2=O)c1 [Compound 4, N-But-3-ynyl-3-[[1-oxo-7-(1H-pyrazol-4-yl)phthalazin-2-yl]methyl]benzamide] | 8.26 |
| O=C(NC1CC1)c1cc(F)cc(Cn2ncc3ccc(-c4cn[nH]c4)cc3c2=O)c1 [Compound 5] | 8.20 |
| O=C(COc1cccc(Cn2ncc3ccc(-c4cn[nH]c4)cc3c2=O)c1)N1CCOCC1 [Compound 6, 2-[[3-(2-Morpholino-2-oxo-ethoxy)phenyl]methyl]-7-(1H-pyrazol-4-yl)phthalazin-1-one] | 8.10 |
| O=C(NC1CC1)c1cccc(Cn2ncc3ccc(-c4cn[nH]c4)cc3c2=O)c1 [Compound 7, N-Cyclopropyl-3-[[1-oxo-7-(1H-pyrazol-4-yl)phthalazin-2-yl]methyl]benzamide] | 8.00 |

The compounds below were run against T1, GRK2 (assay: GRK2 Transcreener Assay). Conditions: 10 nM GRK2, 10 uM ATP, 150 uM peptide substrate.
Type: biochemical
Experimental: Positive and negative control wells received an equal volume of DMSO. The final DMSO concentration in the assay is 1%.
The plate was placed in centrifuge equipped with a spin-bucket rotor and spun for 1 min at 1000 rpm.
GRK2 enzymatic reactions were initiated with the addition of 2 μL/well of 50 nM GRK2 in assay buffer. Plates were centrifuged for 1 min at 1000 rpm. For negative control wells, the order of reagent addition was reversed: 10 μL/well ADP detection mix (see below) was added first, followed by the addition of 2 μL/well of the GRK2 solution. Reaction mixtures were incubated at ambient temperature for 2 hours.
Following incubation, the reactions were quenched with 10 μL/well of the Transcreener ADP detection mix. […] The plates were then centrifuged for 1 min at 1000 rpm.
Fluorescence polarization values of the reaction mixtures were read on a Safire II plate reader after a 60 min incubation at ambient temperature. Excitation wavelength=590 nm: emission wavelength=650 nm.
The fluorescence polarization data were converted to % activity as follows:
% activity=(sample−NC)/(PC−NC)*100
where NC is the mean of negative control (ADP detection mix added prior to GRK2 addition), and PC is the mean of positive control (GRK2 reaction without inhibitor). IC50 values are determined from a 4-parameter fit, using the following equation:
as §1, §2

| SMILES | pIC50 |
| --- | --- |
| [2H]C([2H])(Oc1cccc([C@@H](C)n2ncc3ccc(-c4cn[nH]c4)cc3c2=O)c1)C(=O)O (single isomer, unassigned) [Compound 20] | 6.72 |
| [2H]C([2H])(Oc1cccc([C@@H](C)n2ncc3ccc(-c4cn[nH]c4)cc3c2=O)c1)C(=O)OC (single isomer, unassigned) [Compound 21] | 7.64 |
| C[C@H](c1cccc(OCC(=O)O)c1)n1ncc2ccc(-c3ccnc(N)n3)cc2c1=O (single isomer, unassigned) [Compound 22] | 4.96 |
| COC(=O)COc1cccc([C@@H](C)n2ncc3ccc(-c4ccnc(N)n4)cc3c2=O)c1 (single isomer, unassigned) [Compound 27] | 5.72 |
| Cc1n[nH]cc1-c1ccc2cnn([C@H](C)c3cccc(OCC(=O)O)c3)c(=O)c2c1 (single isomer, unassigned) [Compound 28] | 6.39 |
| C[C@H](c1cccc(OCC(=O)O)c1)n1ncc2ccc(-c3cn[nH]c3)cc2c1=O (single isomer, unassigned) [Compound 29] | 7.33 |
| C[C@H](c1cccc(OCCOC2CC2)c1)n1ncc2ccc(-c3cn[nH]c3)cc2c1=O (single isomer, unassigned) [Compound 30] | 6.18 |
| Cc1n[nH]cc1-c1ccc2cnn([C@H](C)c3cccc(OCCOC4CC4)c3)c(=O)c2c1 (single isomer, unassigned) [Compound 31] | 5.21 |
| COc1cccc([C@@H](C)n2ncc3ccc(-c4ccnc(N)n4)cc3c2=O)c1 (single isomer, unassigned) [Compound 33] | 5.11 |
| O=C(O)Cc1cccc(Cn2ncc3ccc(-c4cn[nH]c4)cc3c2=O)c1 [Compound 23, 2-[3-[[1-oxo-7-(1H-pyrazol-4-yl)phthalazin-2-yl]methyl]phenyl]acetic acid] | 5.89 |
| COC(=O)CCNC(=O)c1cccc(Cn2ncc3ccc(-c4cn[nH]c4)cc3c2=O)c1 [Compound 24, Methyl 3-[[3-[[1-oxo-7-(1H-pyrazol-4-yl)phthalazin-2-yl]methyl]benzoyl]amino]propanoate] | 8.13 |
| COC(=O)Cc1cccc(Cn2ncc3ccc(-c4cn[nH]c4)cc3c2=O)c1 [Compound 25, Methyl 2-[3-[[1-oxo-7-(1H-pyrazol-4-yl)phthalazin-2-yl]methyl]phenyl]acetate] | 6.66 |
| O=C(O)CCNC(=O)c1cccc(Cn2ncc3ccc(-c4cn[nH]c4)cc3c2=O)c1 [Compound 26, 3-[[3-[[1-Oxo-7-(1H-pyrazol-4-yl)phthalazin-2-yl]methyl]benzoyl]amino]propanoic acid] | 6.28 |
| CCC(c1cccc(OC)c1)n1ncc2ccc(-c3cn[nH]c3)cc2c1=O (stereo not drawn) [Compound 32, 2-[1-(3-Methoxyphenyl)propyl]-7-(1H-pyrazol-4-yl)phthalazin-1-one] | 5.80 |
| COc1cccc(Cn2ncc3ccc(-c4ccnc(N)n4)cc3c2=O)c1 [Compound 34, 7-(2-Aminopyrimidin-4-yl)-2-[(3-methoxyphenyl)methyl]phthalazin-1-one] | 6.05 |
| COc1cccc(Cn2ncc3ccc(-c4c[nH]nc4C)cc3c2=O)c1 [Compound 35, 2-[(3-Methoxyphenyl)methyl]-7-(3-methyl-1H-pyrazol-4-yl)phthalazin-1-one] | 6.85 and 6.92 |
| COc1cccc(Cn2ncc3ccc(-c4ccoc4)cc3c2=O)c1 [Compound 36, 7-(3-Furyl)-2-[(3-methoxyphenyl)methyl]phthalazin-1-one] | 6.05 |
| COC(=O)COc1cccc(Cn2ncc3ccc(-c4cn[nH]c4)cc3c2=O)c1 [Compound 37, Methyl 2-[3-[[1-oxo-7-(1H-pyrazol-4-yl)phthalazin-2-yl]methyl]phenoxy]acetate] | > 8.30 |
| O=C(O)COc1cccc(Cn2ncc3ccc(-c4cn[nH]c4)cc3c2=O)c1 [Compound 38, 2-[3-[[1-Oxo-7-(1H-pyrazol-4-yl)phthalazin-2-yl]methyl]phenoxy]acetic acid] | 8.10 |
| O=c1c2cc(-c3cn[nH]c3)ccc2cnn1Cc1cccc(OC(F)(F)F)c1 [Compound 39, 7-(1H-Pyrazol-4-yl)-2-[[3-(trifluoromethoxy)phenyl]methyl]phthalazin-1-one] | < 4.30 |
| O=c1c2cc(-c3cn[nH]c3)ccc2cnn1Cc1ccccc1 [Compound 40, 2-Benzyl-7-(1H-pyrazol-4-yl)phthalazin-1-one] | 6.52 |
